According to patent publication US8664257B2, “Oxygen-substituted 3-heteroaroylamino-propionic acid derivatives and their use as pharmaceuticals” (Sanofi, priority 2010, dated 2014):
Read-outs that look alike come from different tables or passages of the source.

Target: T1, Recombinant human cathepsin A (Homo sapiens, UniProt P10619)
T1 construct: Recombinant human cathepsin A (residues 29-480, with a C-terminal 10-His tag); 10-His (C); purchased R&D Systems 1049-SE
T1 sequence (P10619 29-312 limits assumed): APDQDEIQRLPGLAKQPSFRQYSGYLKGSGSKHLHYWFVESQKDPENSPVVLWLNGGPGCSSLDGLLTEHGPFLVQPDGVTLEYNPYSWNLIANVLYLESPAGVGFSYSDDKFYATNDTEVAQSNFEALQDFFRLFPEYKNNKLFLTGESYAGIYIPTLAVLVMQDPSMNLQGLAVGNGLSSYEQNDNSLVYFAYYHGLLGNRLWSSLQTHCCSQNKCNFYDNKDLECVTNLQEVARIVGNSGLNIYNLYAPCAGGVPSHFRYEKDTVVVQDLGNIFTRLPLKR
T1 sequence (P10619 327-480 limits assumed): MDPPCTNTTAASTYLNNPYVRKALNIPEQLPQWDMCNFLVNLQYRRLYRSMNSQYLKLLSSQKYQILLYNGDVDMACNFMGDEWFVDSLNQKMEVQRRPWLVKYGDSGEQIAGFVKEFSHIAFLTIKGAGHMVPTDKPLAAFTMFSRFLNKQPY
Assay: Cathepsin A inhibitory activity
Assay type: biochemical
Summary of the method: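 Human cathepsin A (res. 29-480, C-His10) pre-activated with cathepsin L (MES pH 6.0, DTT, 15 min, 37 °C; quenched with 10 μM E-64). Enzyme (833 ng/ml) preincubated 15 min RT with compound in MES pH 5.5/DTT, then 2 μM Bodipy FL-bradykinin for 15 min RT. Capillary electrophoresis product/substrate peak areas; IC50 from % inhibition.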

[1] = recombinant human cathepsin A 833 ng/ml, Bodipy FL-labeled bradykinin 2 μM, pH 5.5, read-out: CATH-A IC50
[2] = recombinant human cathepsin A, read-out: Activity (2): Cathepsin A inhibitory activity, IC50 class

SMILES: O=C(O)CC(NC(=O)c1cc(O)n(-c2ccc(F)cc2F)n1)c1cc(F)ccc1C(F)(F)F (centres unmarked) [Example 452, 3-{[1-(2,4-Difluoro-phenyl)-5-hydroxy-1H-pyrazole-3-carbonyl]-amino}-3-(5-fluoro-2-trifluoromethyl-phenyl)-propionic acid]
- IC50 [1]: 139 nM
- IC50 [2]: 100 to 1000 nM

SMILES: COc1ccc(F)cc1C(CC(=O)O)NC(=O)c1cc(O)n(-c2ccc(F)cc2F)n1 (centres unmarked) [Example 453, 3-{[1-(2,4-Difluoro-phenyl)-5-hydroxy-1H-pyrazole-3-carbonyl]-amino}-3-(5-fluoro-2-methoxy-phenyl)-propionic acid]
- IC50 [1]: 249 nM
- IC50 [2]: 100 to 1000 nM

SMILES: Cc1ccc([C@H](CC(=O)O)NC(=O)c2cc(O)n(-c3ccc(F)cc3F)n2)cc1 [Example 454, (S)-3-{[1-(2,4-Difluoro-phenyl)-5-hydroxy-1H-pyrazole-3-carbonyl]-amino}-3-p-tolyl-propionic acid]
- IC50 [1]: 186 nM
- IC50 [2]: 100 to 1000 nM

SMILES: Cc1c(F)cccc1C(CC(=O)O)NC(=O)c1cc(O)n(-c2ccccc2Cl)n1 (centres unmarked) [Example 455, 3-{[1-(2-Chloro-phenyl)-5-hydroxy-1H-pyrazole-3-carbonyl]-amino}-3-(3-fluoro-2-methyl-phenyl)-propionic acid]
- IC50 [1]: 154 nM
- IC50 [2]: 100 to 1000 nM

SMILES: CN(C)c1ccc(C(CC(=O)O)NC(=O)c2cc(O)n(-c3ccccc3Cl)n2)c(Cl)c1 (centres unmarked) [Example 456]
- IC50 [2]: 1000 to 30000 nM

SMILES: COc1cccc(F)c1C(CC(=O)O)NC(=O)c1cc(O)n(-c2ccccc2Cl)n1 (centres unmarked) [Example 457, 3-{[1-(2-Chloro-phenyl)-5-hydroxy-1H-pyrazole-3-carbonyl]-amino}-3-(2-fluoro-6-methoxy-phenyl)-propionic acid]
- IC50 [1]: 170 nM
- IC50 [2]: 100 to 1000 nM

SMILES: O=C(O)CC(NC(=O)c1cc(O)n(-c2ccccc2Cl)n1)c1cc(F)ccc1Cl (centres unmarked) [Example 458, 3-(2-Chloro-5-fluoro-phenyl)-3-{[1-(2-chloro-phenyl)-5-hydroxy-1H-pyrazole-3-carbonyl]-amino}-propionic acid]
- IC50 [1]: 223 nM
- IC50 [2]: 100 to 1000 nM

SMILES: O=C(O)CC(NC(=O)c1cc(O)n(-c2ccccc2Cl)n1)c1cc(F)ccc1F (centres unmarked) [Example 459, 3-{[1-(2-Chloro-phenyl)-5-hydroxy-1H-pyrazole-3-carbonyl]-amino}-3-(2,5-difluoro-phenyl)-propionic acid]
- IC50 [1]: 128 nM
- IC50 [2]: 100 to 1000 nM

SMILES: O=C(O)CC(NC(=O)c1cc(O)n(-c2ccccc2Cl)n1)c1cc(F)ccc1C(F)(F)F (centres unmarked) [Example 460, 3-{[1-(2-Chloro-phenyl)-5-hydroxy-1H-pyrazole-3-carbonyl]-amino}-3-(5-fluoro-2-trifluoromethyl-phenyl)-propionic acid]
- IC50 [1]: 118 nM
- IC50 [2]: 100 to 1000 nM

SMILES: Cc1ccc(F)cc1C(CC(=O)O)NC(=O)c1cc(O)n(-c2ccccc2Cl)n1 (centres unmarked) [Example 461, 3-{[1-(2-Chloro-phenyl)-5-hydroxy-1H-pyrazole-3-carbonyl]-amino}-3-(5-fluoro-2-methyl-phenyl)-propionic acid]
- IC50 [1]: 151 nM
- IC50 [2]: 100 to 1000 nM

SMILES: O=C(O)CC(NC(=O)c1cc(O)n(-c2ccccc2Cl)n1)c1cc(Cl)ccc1Cl (centres unmarked) [Example 462, 3-{[1-(2-Chloro-phenyl)-5-hydroxy-1H-pyrazole-3-carbonyl]-amino}-3-(2,5-dichloro-phenyl)-propionic acid]
- IC50 [1]: 80.4 nM
- IC50 [2]: < 100 nM

SMILES: CN(C)c1ccc(C(CC(=O)O)NC(=O)c2cc(O)n(-c3cccc(Cl)c3)n2)c(Cl)c1 (centres unmarked) [Example 463, 3-(2-Chloro-4-dimethylamino-phenyl)-3-{[1-(3-chloro-phenyl)-5-hydroxy-1H-pyrazole-3-carbonyl]-amino}-propionic acid]
- IC50 [1]: 11100 nM
- IC50 [2]: 1000 to 30000 nM

SMILES: O=C(O)CC(NC(=O)c1cc(O)n(-c2cccc(Cl)c2)n1)c1cccc2c1OC(F)(F)O2 (centres unmarked) [Example 464, 3-{[1-(3-Chloro-phenyl)-5-hydroxy-1H-pyrazole-3-carbonyl]-amino}-3-(2,2-difluoro-benzo[1,3]dioxol-4-yl)-propionic acid]
- IC50 [1]: 274 nM
- IC50 [2]: 100 to 1000 nM

SMILES: O=C(O)CC(NC(=O)c1cc(O)n(-c2cccc(Cl)c2)n1)c1cc(F)ccc1F (centres unmarked) [Example 465, 3-{[1-(3-Chloro-phenyl)-5-hydroxy-1H-pyrazole-3-carbonyl]-amino}-3-(2,5-difluoro-phenyl)-propionic acid]
- IC50 [1]: 738 nM
- IC50 [2]: 100 to 1000 nM

SMILES: O=C(O)CC(NC(=O)c1cc(O)n(-c2cccc(Cl)c2)n1)c1cc(F)ccc1C(F)(F)F (centres unmarked) [Example 466, 3-{[1-(3-Chloro-phenyl)-5-hydroxy-1H-pyrazole-3-carbonyl]-amino}-3-(5-fluoro-2-trifluoromethyl-phenyl)-propionic acid]
- IC50 [1]: 562 nM
- IC50 [2]: 100 to 1000 nM

SMILES: O=C(O)CC(NC(=O)c1cc(O)n(-c2cccc(Cl)c2)n1)c1ccccc1SC(F)(F)F (centres unmarked) [Example 467, 3-{[1-(3-Chloro-phenyl)-5-hydroxy-1H-pyrazole-3-carbonyl]-amino}-3-(2-trifluoromethylsulfanyl-phenyl)-propionic acid]
- IC50 [1]: 2250 nM
- IC50 [2]: 1000 to 30000 nM

SMILES: Cc1c(F)cccc1C(CC(=O)O)NC(=O)c1cc(O)n(-c2ccc(Cl)cc2)n1 (centres unmarked) [Example 468, 3-{[1-(4-Chloro-phenyl)-5-hydroxy-1H-pyrazole-3-carbonyl]-amino}-3-(3-fluoro-2-methyl-phenyl)-propionic acid]
- IC50 [1]: 280 nM
- IC50 [2]: 100 to 1000 nM

SMILES: COc1cccc(F)c1C(CC(=O)O)NC(=O)c1cc(O)n(-c2ccc(Cl)cc2)n1 (centres unmarked) [Example 469, 3-{[1-(4-Chloro-phenyl)-5-hydroxy-1H-pyrazole-3-carbonyl]-amino}-3-(2-fluoro-6-methoxy-phenyl)-propionic acid]
- IC50 [1]: 860 nM
- IC50 [2]: 100 to 1000 nM

SMILES: O=C(O)CC(NC(=O)c1cc(O)n(-c2ccc(Cl)cc2)n1)c1cc(F)ccc1Cl (centres unmarked) [Example 470, 3-(2-Chloro-5-fluoro-phenyl)-3-{[1-(4-chloro-phenyl)-5-hydroxy-1H-pyrazole-3-carbonyl]-amino}-propionic acid]
- IC50 [1]: 398 nM
- IC50 [2]: 100 to 1000 nM

SMILES: O=C(O)CC(NC(=O)c1cc(O)n(-c2ccc(Cl)cc2)n1)c1cccc2c1OC(F)(F)O2 (centres unmarked) [Example 471, 3-{[1-(4-Chloro-phenyl)-5-hydroxy-1H-pyrazole-3-carbonyl]-amino}-3-(2,2-difluoro-benzo[1,3]dioxol-4-yl)-propionic acid]
- IC50 [1]: 486 nM
- IC50 [2]: 100 to 1000 nM

SMILES: O=C(O)CC(NC(=O)c1cc(O)n(-c2ccc(Cl)cc2)n1)c1cc(F)ccc1F (centres unmarked) [Example 472, 3-{[1-(4-Chloro-phenyl)-5-hydroxy-1H-pyrazole-3-carbonyl]-amino}-3-(2,5-difluoro-phenyl)-propionic acid]
- IC50 [1]: 4090 nM
- IC50 [2]: 1000 to 30000 nM

SMILES: O=C(O)CC(NC(=O)c1cc(O)n(-c2ccc(Cl)cc2)n1)c1cc(F)ccc1C(F)(F)F (centres unmarked) [Example 473, 3-{[1-(4-Chloro-phenyl)-5-hydroxy-1H-pyrazole-3-carbonyl]-amino}-3-(5-fluoro-2-trifluoromethyl-phenyl)-propionic acid]
- IC50 [1]: 1730 nM
- IC50 [2]: 1000 to 30000 nM

SMILES: O=C(O)C[C@H](NC(=O)c1cc(O)n(-c2ccc(Cl)cc2)n1)c1ccccc1Cl [Example 474, (S)-3-(2-Chloro-phenyl)-3-{[1-(4-chloro-phenyl)-5-hydroxy-1H-pyrazole-3-carbonyl]-amino}-propionic acid]
- IC50 [1]: 207 nM
- IC50 [2]: 100 to 1000 nM

SMILES: O=C(O)CC(NC(=O)c1cc(O)n(-c2ccccc2F)n1)c1cc(F)ccc1Cl (centres unmarked) [Example 475, 3-(2-Chloro-5-fluoro-phenyl)-3-{[1-(2-fluoro-phenyl)-5-hydroxy-1H-pyrazole-3-carbonyl]-amino}-propionic acid]
- IC50 [1]: 137 nM
- IC50 [2]: 100 to 1000 nM

SMILES: O=C(O)CC(NC(=O)c1cc(O)n(-c2ccccc2F)n1)c1cccc2c1OC(F)(F)O2 (centres unmarked) [Example 476]
- IC50 [2]: 100 to 1000 nM

SMILES: O=C(O)CC(NC(=O)c1cc(O)n(-c2ccccc2F)n1)c1cc(F)ccc1C(F)(F)F (centres unmarked) [Example 477]
- IC50 [2]: 100 to 1000 nM

SMILES: Cc1ccc(F)cc1C(CC(=O)O)NC(=O)c1cc(O)n(-c2ccccc2F)n1 (centres unmarked) [Example 478]
- IC50 [2]: < 100 nM

SMILES: O=C(O)CC(NC(=O)c1cc(O)n(-c2ccccc2F)n1)c1cc(Cl)ccc1Cl (centres unmarked) [Example 479]
- IC50 [2]: < 100 nM

SMILES: Cc1ccc([C@H](CC(=O)O)NC(=O)c2cc(O)n(-c3ccccc3F)n2)cc1 [Example 480]
- IC50 [2]: 100 to 1000 nM

SMILES: O=C(O)CC(NC(=O)c1cc(O)n(-c2ccccc2F)n1)c1ccc(-c2ccccn2)cc1 (centres unmarked) [Example 481]
- IC50 [2]: 100 to 1000 nM

SMILES: Cc1c(F)cccc1C(CC(=O)O)NC(=O)c1cc(O)n(-c2cccc(F)c2)n1 (centres unmarked) [Example 482]
- IC50 [2]: 100 to 1000 nM

SMILES: O=C(O)CC(NC(=O)c1cc(O)n(-c2cccc(F)c2)n1)c1cc(F)ccc1Cl (centres unmarked) [Example 483]
- IC50 [2]: 100 to 1000 nM

SMILES: O=C(O)CC(NC(=O)c1cc(O)n(-c2cccc(F)c2)n1)c1cccc2c1OC(F)(F)O2 (centres unmarked) [Example 484]
- IC50 [2]: 100 to 1000 nM

SMILES: O=C(O)CC(NC(=O)c1cc(O)n(-c2cccc(F)c2)n1)c1cc(F)ccc1F (centres unmarked) [Example 485]
- IC50 [2]: 100 to 1000 nM

SMILES: O=C(O)CC(NC(=O)c1cc(O)n(-c2cccc(F)c2)n1)c1cc(F)ccc1C(F)(F)F (centres unmarked) [Example 486]
- IC50 [2]: 100 to 1000 nM

SMILES: Cc1ccc(F)cc1C(CC(=O)O)NC(=O)c1cc(O)n(-c2cccc(F)c2)n1 (centres unmarked) [Example 487]
- IC50 [2]: 100 to 1000 nM
